This note sets out measurements from patent publication US20260007131A1, “HERBICIDAL COMPOSITION CONTAINING DIFLUOROBUTENOIC ACID AMIDE COMPOUND” (ISHIHARA SANGYO KAISHA, LTD., priority 2022, published 2026).

SMILES strings stand for the structures. Where only a bound is given, the exact number is not on record here.

Common to all, as to format: in vivo
One test concerns wild oat (Avena fatua). The experiment in a line: Herbicidal effect on wild oat (foliar treatment). The procedure: (§1) Upland soil was put into a 1/300,000 hectare (ha) pot, seeds of barnyardgrass (Echinochloa crus-galli) were sown, and about 1.5 cm of cover soil was put. The barnyardgrass was grown for 10 days in a greenhouse until it reached a predetermined leaf stage. […] The spray solution was sprayed over the grown barnyardgrass with a small sprayer for foliar treatment.
(§2) Upland soil was put into a 1/300,000 hectare (ha) pot, seeds of barnyardgrass (Echinochloa crus-galli), crabgrass (Digitaria sanguinalis), green foxtail (Setaria viridis), wild oat (Avena fatua), Italian ryegrass (Lolium multiflorum), foxtail shortawn (Alopecurus aequalis), annual bluegrass (Poa annua), redroot pigweed (Amaranthus retroflexus), common chickweed (Stellaria media) common lambsquarters (Chenopodium album) and black nightshade (Solanum nigrum) were sown, and about 1.5 cm of cover soil was put. The plants were grown for 10 days in a greenhouse until they reached a predetermined leaf stage.

Test [1] deals with crabgrass (Digitaria sanguinalis). The experiment in a line: Herbicidal effect on crabgrass (soil treatment). The source says: (§3) Upland soil was put into a 1/300,000 hectare (ha) pot, seeds of barnyardgrass (Echinochloa crus-galli) were sown, and about 1.5 cm of cover soil was put. […] On the next day after sowing, the spray solution was sprayed with a small sprayer for soil treatment.
(§4) Upland soil was put into a 1/300,000 hectare (ha) pot, seeds of barnyardgrass (Echinochloa crus-galli), crabgrass (Digitaria sanguinalis), green foxtail (Setaria viridis), Italian ryegrass (Lolium multiflorum), redroot pigweed (Amaranthus retroflexus) and common chickweed (Stellaria media) were sown, and about 1.5 cm of cover soil was put.

The test system of test [2] is black nightshade (Solanum nigrum). The experiment in a line: Herbicidal effect on black nightshade (foliar treatment). The procedure: as §1, §2
Test [3] deals with green foxtail (Setaria viridis). The experiment in a line: Herbicidal effect on green foxtail (soil treatment).
Source text: as §3, §4

For the compound `COC(=O)[C@H]1C[C@@H](NC(=O)C(F)(F)/C=C/c2cc(F)cc(F)c2)C1` [Aa-1-1], the inhibition (as a rule, the percentage by which the read-out fell short of the control) at 500 g/ha is at least 90% with wild oat (Avena fatua) (Comparative Test 1, wild oat, 500 g/ha, read-out: Growth inhibition rate); at least 90% in test [1] (Comparative Test 2, crabgrass, 500 g/ha, read-out: Growth inhibition rate); 70 to 90% in test [2] (Comparative Test 1, black nightshade, 500 g/ha, read-out: Growth inhibition rate); at least 90% in test [3] (Comparative Test 2, green foxtail, 500 g/ha, read-out: Growth inhibition rate). The inhibition at 1000 g/ha in the test on wild oat (Avena fatua) (Comparative Test 1, wild oat, 1000 g/ha, read-out: Growth inhibition rate) was at least 90%; in test [1] (Comparative Test 2, crabgrass, 1000 g/ha, read-out: Growth inhibition rate), at least 90%; in test [2] (Comparative Test 1, black nightshade, 1000 g/ha, read-out: Growth inhibition rate) it was at least 90%; in test [3] (Comparative Test 2, green foxtail, 1000 g/ha, read-out: Growth inhibition rate) it was at least 90%. Further, the inhibition at 250 g/ha in the test on wild oat (Avena fatua) (wild oat, 250 g/ha, 14th day, read-out: growth inhibition rate) was at least 70%; in test [1] (crabgrass, 250 g/ha, 14th day, read-out: growth inhibition rate), at least 70%; in test [2] (black nightshade, 250 g/ha, 14th day, read-out: growth inhibition rate), at least 70%; in test [3] (green foxtail, 250 g/ha, 14th day, read-out: growth inhibition rate), at least 70%.
